From patent US20170349532A1, “CATIONIC LIPID” (Kyowa Hakko Kirin Co., Ltd., priority 2011, published 2017)

Assay: Average particle diameter of preparation (Zetasizer Nano ZS)
Assay type: physicochemical
Conditions: average particle diameter of cationic lipid/nucleic acid complex; Example 118 preparation: compound/PEG-DMPE Na/DSPC/cholesterol with apo-b siRNA
In short: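 Lipid nanoparticles formed by mixing cationic lipid/PEG-DMPE Na/DSPC/cholesterol (8.947/1.059/5.708/13.697 mmol/L in 90% ethanol, 37 °C) with apo-b siRNA in Tris-EDTA/citrate buffer pH 5.0, then diluted with citrate/NaCl pH 6.0 and DPBS to 10 μM siRNA. Mean complex diameter measured by dynamic light scattering.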

| Particle diameter of Preparetion [nm] | SMILES |
| --- | --- |
| 135.0 | CCCCCC/C=C\CCCCCCCCCCO[C@@H]1CN(C)C[C@H]1OCCCCCCCCCC/C=C\CCCCCC [Compound 48, (3R,4R)-1-Methyl-3,4-bis((Z)-octadec-11-enyloxy)pyrrolidine] |
| 139.1 | CCCCCCCCCCC/C=C\CCCCCO[C@@H]1CN(C)C[C@H]1OCCCCC/C=C\CCCCCCCCCCC [Compound 15, (3R,4R)-1-Methyl-3,4-bis((Z)-octadec-6-enyloxy)pyrrolidine] |
| 112.0 | CCCCCCCC/C=C\CCCCCCCCOC[C@@H]1C[N+](C)(C)C[C@H]1COCCCCCCCC/C=C\CCCCCCCC.[Cl-] (relative stereo) [Compound 111, trans-1,1-Dimethyl-3,4-bis(((Z)-octadec-9-enyloxy)methyl)pyrrolidinium chloride] |
| 139.3 | CCCCCC/C=C\CCCCCCCCO[C@@H]1CN(C)C[C@H]1OCCCCCCCC/C=C\CCCCCC [Compound 14, (3R,4R)-3,4-bis((Z)-Hexadec-9-enyloxy)-1-methylpyrrolidine] |
| 154.2 | CCCCCCCCCCCCCCO[C@@H]1CNC[C@H]1OCCCCCCCCCCCCCC [Compound 5, (3R,4R)-3,4-bis(Tetradecyloxy)pyrrolidine] |
| 127.6 | CCCCCCCC/C=C\CCCCCCCCOCCNCCOCCCCCCCC/C=C\CCCCCCCC [Compound 67, bis(2-((Z)-Octadec-9-enyloxy)ethyl)amine] |
| 148.4 | CCCCCCCCCCCCCCCCCCOCCNCCOCCCCCCCCCCCCCCCCCC [Compound 71, bis(2-(Octadecyloxy)ethyl)amine] |

Continued, compound first:

| SMILES | Particle diameter of Preparetion [nm] |
| --- | --- |
| CCCCC/C=C\C/C=C\CCCCCCCCO[C@H]1CNC[C@@H]1OCCCCCCCC/C=C\C/C=C\CCCCC (stereo in doubt) [Compound 43, (3S,4S)-3,4-bis((9Z,12Z)-Octadec-9,12-dienyloxy)pyrrolidine] | 150.0 |
| CCCCC/C=C\C/C=C\CCCCCCCCO[C@@H]1CN(C(=O)CCCCCN)C[C@H]1OCCCCCCCC/C=C\C/C=C\CCCCC [Compound 64, (3R,4R)-1-(6-Aminohexanoyl)-3,4-bis((9Z,12Z)-octadec-9,12-dienyloxy)pyrrolidine] | 146.0 |
| CCCCC/C=C\C/C=C\CCCCCCCC(=O)O[C@@H]1C[N+](C)(C)C[C@H]1OC(=O)CCCCCCC/C=C\C/C=C\CCCCC.[Cl-] [Compound 20, (3R,4R)-1,1-Dimethyl-3,4-bis((9Z,12Z)-octadec-9,12-dienoyloxy)pyrrolidinium chloride] | 107.5 |
| CCCCC/C=C\C/C=C\CCCCCCCC(=O)OCCNCCOC(=O)CCCCCCC/C=C\C/C=C\CCCCC [Compound 74, N,N-bis(2-((9Z,12Z)-Octadec-9,12-dienoyloxy)ethyl)amine] | 128.4 |
| CCCCC/C=C\C/C=C\CCCCCCCC(=O)OC[C@@H]1CNC[C@H]1COC(=O)CCCCCCC/C=C\C/C=C\CCCCC (relative stereo) [Compound 105, trans-3,4-bis(((9Z,12Z)-Octadec-9,12-dienoyloxy)methyl)pyrrolidine] | 125.6 |
| CCCCCCCC/C=C\CCCCCCCC(=O)O[C@@H]1CNC[C@H]1OC(=O)CCCCCCC/C=C\CCCCCCCC [Compound 9, (3R,4R)-Pyrrolidine-3,4-diyl di((Z)-octadec-9-enoate)] | 141.9 |
| CCCCC/C=C\C/C=C\CCCCCCCCO[C@@H]1CN(CC(C)O)C[C@H]1OCCCCCCCC/C=C\C/C=C\CCCCC (stereo partly drawn) [Compound 54, 1-((3R,4R)-3,4-bis((9Z,12Z)-Octadec-9,12-dienyloxy)pyrrolidine-1-yl)propan-2-ol] | 148.9 |
| CCCCC/C=C\C/C=C\CCCCCCCC(=O)O[C@@H]1CNC[C@H]1OC(=O)CCCCCCC/C=C\C/C=C\CCCCC [Compound 2, (3R,4R)-Pyrrolidine-3,4-diyl di((9Z,12Z)-octadec-9,12-dienoate)] | 139.6 |
